Assay [1] deals with Sodium-dependent noradrenaline transporter (Homo sapiens, UniProt P23975). Put plainly: DRUGMATRIX: Norepinephrine Transporter radioligand binding (ligand: [125I] RTI-55). In kind it is cell membranes, MDCK, Membrane. To be noted: Not Active = under 50% inhibition at 10 µM.
Assay [2] deals with C-C chemokine receptor type 5 (Homo sapiens, UniProt P51681). It counts as cell membranes, Membrane. To be noted: hek293.
Assay [3] deals with T1, D(4) dopamine receptor (Homo sapiens, UniProt P21917).
T1 sequence (P21917 whole entry): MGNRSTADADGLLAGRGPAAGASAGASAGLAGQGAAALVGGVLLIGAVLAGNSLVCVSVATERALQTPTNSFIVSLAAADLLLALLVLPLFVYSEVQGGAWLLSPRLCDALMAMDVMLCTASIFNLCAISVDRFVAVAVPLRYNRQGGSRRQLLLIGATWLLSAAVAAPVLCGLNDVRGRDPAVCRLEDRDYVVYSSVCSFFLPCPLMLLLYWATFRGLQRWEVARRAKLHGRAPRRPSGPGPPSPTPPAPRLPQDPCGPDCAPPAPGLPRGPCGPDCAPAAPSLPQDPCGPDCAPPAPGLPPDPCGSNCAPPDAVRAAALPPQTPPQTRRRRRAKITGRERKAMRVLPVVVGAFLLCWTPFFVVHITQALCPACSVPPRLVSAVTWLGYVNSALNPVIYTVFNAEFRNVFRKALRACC
In words: DRUGMATRIX: Dopamine D4.2 radioligand binding (ligand: [3H] Spiperone). It counts as cell membranes, CHO-K1, Membrane. To be noted: cho-k1; Not Active = under 50% inhibition at 10 µM.

A short description of assay [4]: DRUGMATRIX: GABAA, Flunitrazepam, Central radioligand binding (ligand: [3H] Flunitrazepam). In kind it is cell membranes, Rattus norvegicus, Wistar, Brain, Membrane. The conditions noted are these: Not Active = under 50% inhibition at 10 µM.
Assay [5] in a line: DRUGMATRIX: Glutamate, AMPA radioligand binding (ligand: [3H] AMPA). It counts as cell membranes, Rattus norvegicus, Wistar, Cerebral cortex, Membrane. To be noted: Not Active = under 50% inhibition at 10 µM.
The nature of assay [6]: DRUGMATRIX: Leukotriene, BLT (LTB4) radioligand binding (ligand: [3H]LTB4). In kind it is cell membranes, Membrane. To be noted: u-937; Not Active = under 50% inhibition at 10 µM.
The target in assay [7] is Estrogen receptor beta (Homo sapiens, UniProt Q92731). The conditions noted are these: sf9. Further: in other assays of this panel Not Active means under 50% inhibition at 10 µM.
Sequence of Estrogen receptor beta (Q92731 whole entry): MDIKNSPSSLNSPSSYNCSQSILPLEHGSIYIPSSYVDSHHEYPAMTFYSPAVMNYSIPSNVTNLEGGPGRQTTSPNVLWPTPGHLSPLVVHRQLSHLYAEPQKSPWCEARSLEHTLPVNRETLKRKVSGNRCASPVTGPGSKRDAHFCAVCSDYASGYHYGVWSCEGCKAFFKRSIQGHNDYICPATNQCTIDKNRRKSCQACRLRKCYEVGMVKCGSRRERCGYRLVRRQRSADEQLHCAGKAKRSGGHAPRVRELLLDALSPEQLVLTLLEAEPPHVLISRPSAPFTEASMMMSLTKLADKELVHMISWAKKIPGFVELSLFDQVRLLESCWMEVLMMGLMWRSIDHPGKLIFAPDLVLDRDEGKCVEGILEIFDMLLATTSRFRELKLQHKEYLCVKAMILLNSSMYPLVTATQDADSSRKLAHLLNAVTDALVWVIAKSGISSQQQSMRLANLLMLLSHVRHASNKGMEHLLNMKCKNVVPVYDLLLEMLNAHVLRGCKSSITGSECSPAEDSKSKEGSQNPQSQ

The IC50 is the concentration needed to halve the response being measured. The Ki is a measure of affinity in units of concentration, obtained from inhibition or displacement.

Sequence of C-C chemokine receptor type 5 (P51681 whole entry): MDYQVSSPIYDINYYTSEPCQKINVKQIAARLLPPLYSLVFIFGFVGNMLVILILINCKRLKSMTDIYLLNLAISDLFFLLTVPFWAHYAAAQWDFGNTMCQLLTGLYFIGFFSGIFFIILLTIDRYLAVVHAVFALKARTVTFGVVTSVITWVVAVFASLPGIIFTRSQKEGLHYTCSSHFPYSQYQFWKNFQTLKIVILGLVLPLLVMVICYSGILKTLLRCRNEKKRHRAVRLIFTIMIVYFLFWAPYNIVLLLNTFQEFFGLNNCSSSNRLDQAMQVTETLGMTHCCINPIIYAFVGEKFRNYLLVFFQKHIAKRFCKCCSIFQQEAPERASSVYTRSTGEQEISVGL
Sequence of Sodium-dependent noradrenaline transporter (P23975 whole entry): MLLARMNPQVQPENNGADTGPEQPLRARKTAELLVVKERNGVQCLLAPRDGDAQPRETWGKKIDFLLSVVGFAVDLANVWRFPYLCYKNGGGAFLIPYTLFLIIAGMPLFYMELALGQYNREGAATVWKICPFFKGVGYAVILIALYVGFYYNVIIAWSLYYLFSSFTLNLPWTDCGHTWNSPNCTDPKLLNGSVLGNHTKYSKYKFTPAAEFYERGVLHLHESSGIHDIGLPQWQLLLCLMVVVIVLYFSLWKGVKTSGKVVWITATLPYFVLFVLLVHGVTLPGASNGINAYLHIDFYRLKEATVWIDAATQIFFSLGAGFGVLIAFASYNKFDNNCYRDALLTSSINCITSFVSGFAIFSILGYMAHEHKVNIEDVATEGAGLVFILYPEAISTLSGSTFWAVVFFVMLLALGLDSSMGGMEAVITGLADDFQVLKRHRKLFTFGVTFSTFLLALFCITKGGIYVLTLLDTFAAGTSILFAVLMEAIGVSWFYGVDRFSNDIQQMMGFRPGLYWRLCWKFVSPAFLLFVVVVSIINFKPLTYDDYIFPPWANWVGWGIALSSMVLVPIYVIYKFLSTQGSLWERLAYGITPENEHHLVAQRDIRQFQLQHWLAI

As to `Oc1ccccc1O` [CATECHOL], the IC50 entry in assay [1] (mdck), in assay [2], in assay [3], in assay [4], in assay [5] and in assay [6] was “Not Active” each time. Moreover, the IC50 entry in assay [7] was “Not Active”. Moreover, the Ki result in assay [4], in assay [5] and in assay [6] was “Not Active” in each case.
As to `CO[C@@]1(NC(=O)CSCC#N)C(=O)N2C(C(=O)O)=C(CSc3nnnn3C)CS[C@@H]21` [CEFMETAZOLE], the IC50 result in assay [1] (mdck), in assay [2], in assay [3], in assay [4], in assay [5] and in assay [6] was “Not Active” in each case. Further, the IC50 entry in assay [7] is on record as “Not Active”. The Ki result in assay [4], in assay [5] and in assay [6] was “Not Active” each time.
Consider `CN(C(=O)CCCOc1ccc2[nH]c(=O)ccc2c1)C1CCCCC1` [CILOSTAMIDE], for which the IC50 result in assay [1] (mdck), in assay [2], in assay [3], in assay [4], in assay [5] and in assay [6] was “Not Active” throughout. The IC50 result in assay [7] is “Not Active”. Moreover, the Ki entry in assay [4], in assay [5] and in assay [6] was “Not Active” each time.
As to `CC(C)(Oc1ccc(C2CC2(Cl)Cl)cc1)C(=O)O` (stereo unspecified) [CIPROFIBRATE], the IC50 result in assay [1] (mdck), in assay [2], in assay [3], in assay [4], in assay [5] and in assay [6] was “Not Active” throughout. Further, the IC50 entry in assay [7] is “Not Active”. Also, the Ki entry in assay [4], in assay [5] and in assay [6] was “Not Active” in each case.
For `CCC[C@@H]1C[C@@H](C(=O)N[C@@H]([C@H]2O[C@H](SC)[C@H](O)[C@@H](O)[C@H]2O)[C@H](C)Cl)N(C)C1` [CLINDAMYCIN], the IC50 entry in assay [1] (mdck), in assay [2], in assay [3], in assay [4], in assay [5] and in assay [6] was “Not Active” throughout. The IC50 result in assay [7] is reported as “Not Active”. The Ki entry in assay [4], in assay [5] and in assay [6] was “Not Active” in each case.
Regarding `O=C(O)c1cc(=O)c2c(OCC(O)COc3cccc4oc(C(=O)O)cc(=O)c34)cccc2o1` [CROMOLYN], the IC50 result in assay [1] (mdck), in assay [2], in assay [3], in assay [4], in assay [5] and in assay [6] was “Not Active” throughout. For the same compound, the IC50 result in assay [7] is “Not Active”. Moreover, the Ki result in assay [4], in assay [5] and in assay [6] was “Not Active” throughout.
`O=P1(N(CCCl)CCCl)NCCCO1` (stereo unspecified) [CYCLOPHOSPHAMIDE ANHYDROUS]: the IC50 result in assay [1] (mdck), in assay [2], in assay [3], in assay [4], in assay [5] and in assay [6] was “Not Active” each time. Besides, in assay [7], the IC50 result is reported as “Not Active”. The Ki result in assay [4], in assay [5] and in assay [6] was “Not Active” each time.
`CC(=O)O[C@]1(C(C)=O)CC[C@H]2[C@@H]3C=C(Cl)C4=CC(=O)[C@@H]5C[C@@H]5[C@]4(C)[C@H]3CC[C@@]21C` [CYPROTERONE ACETATE]: the half-inhibitory concentration (IC50) entry in assay [1] (mdck), in assay [2], in assay [3], in assay [4], in assay [5] and in assay [6] was “Not Active” in each case. The IC50 entry in assay [7] was “Not Active”. Also, the Ki entry in assay [4], in assay [5] and in assay [6] was “Not Active” each time.
For `Nc1nc(N)nc(NC2CC2)n1` [CYROMAZINE], the IC50 entry in assay [1] (mdck), in assay [2], in assay [3], in assay [4], in assay [5] and in assay [6] was “Not Active” each time. Moreover, the IC50 entry in assay [7] was “Not Active”. The Ki result in assay [4], in assay [5] and in assay [6] was “Not Active” throughout.
Consider `C[C@H](C(=O)O)c1cccc(C(=O)c2ccccc2)c1` [DEXKETOPROFEN], for which the IC50 result in assay [1] (mdck), in assay [2], in assay [3], in assay [4], in assay [5] and in assay [6] was “Not Active” throughout. Further, the IC50 entry in assay [7] is “Not Active”. Also, the Ki result in assay [4], in assay [5] and in assay [6] was “Not Active” in each case.
For `CN1C[C@H](C(=O)N[C@]2(C)O[C@@]3(O)[C@@H]4CCCN4C(=O)[C@H](Cc4ccccc4)N3C2=O)C[C@@H]2c3cccc4[nH]cc(c34)C[C@H]21` [DIHYDROERGOTAMINE], the IC50 result in assay [1] (mdck), in assay [2], in assay [3], in assay [4], in assay [5] and in assay [6] was “Not Active” throughout. Moreover, the IC50 result in assay [7] is “Not Active”. Moreover, the Ki entry in assay [4], in assay [5] and in assay [6] was “Not Active” in each case.
Take `Cc1c(N(C)CS(=O)(=O)[O-])c(=O)n(-c2ccccc2)n1C.[Na+]` [DIPYRONE SODIUM]: the IC50 entry in assay [1] (mdck), in assay [2], in assay [3], in assay [4], in assay [5] and in assay [6] was “Not Active” each time. The IC50 result in assay [7] is recorded as “Not Active”. The Ki result in assay [4], in assay [5] and in assay [6] was “Not Active” each time.
On to `CC(CCc1ccc(O)cc1)NCCc1ccc(O)c(O)c1` (stereo unspecified) [DOBUTAMINE], for which the IC50 in assay [1] (read-out: IC50) is 383 nM; in assay [2], “Not Active”; in assay [3], “Not Active”; in assay [4], “Not Active”; in assay [5] it was “Not Active”; in assay [6] it was “Not Active”. For the same compound, the IC50 entry in assay [7] was “Not Active”. In addition, the Ki in assay [1] (read-out: Ki) is 380 nM; in assay [4], “Not Active”; in assay [5] it was “Not Active”; in assay [6], “Not Active”.
As to `CCn1cc(C(=O)O)c(=O)c2cc(F)c(N3CCNCC3)nc21` [ENOXACIN], the IC50 entry in assay [1] (mdck), in assay [2], in assay [3], in assay [4], in assay [5] and in assay [6] was “Not Active” throughout. In assay [7], the IC50 result was “Not Active”. Also, the Ki result in assay [4], in assay [5] and in assay [6] was “Not Active” throughout.
As to `CCC(=O)O[C@H]1[C@H](O[C@@H]2[C@@H](C)[C@H](O[C@H]3C[C@@](C)(OC)[C@@H](O)[C@H](C)O3)[C@@H](C)C(=O)O[C@H](CC)[C@@](C)(O)[C@H](O)[C@@H](C)C(=O)[C@H](C)C[C@@]2(C)O)O[C@H](C)C[C@@H]1N(C)C` [ERYTHROMYCIN PROPIONATE], the IC50 entry in assay [1] (mdck), in assay [2], in assay [3], in assay [4], in assay [5] and in assay [6] was “Not Active” throughout. Besides, the IC50 entry in assay [7] is “Not Active”. Also, the Ki result in assay [4], in assay [5] and in assay [6] was “Not Active” in each case.
As for `CC(=O)OCC(CCn1cnc2cnc(N)nc21)COC(C)=O` [FAMCICLOVIR], the IC50 entry in assay [1] (mdck), in assay [2], in assay [3], in assay [4], in assay [5] and in assay [6] was “Not Active” throughout. The IC50 result in assay [7] is “Not Active”. The Ki result in assay [4], in assay [5] and in assay [6] was “Not Active” throughout.
Turning to `CCOC(=O)C1=C(C)NC(C)=C(C(=O)OC)C1c1cccc(Cl)c1Cl` (stereo unspecified) [FELODIPINE], the IC50 entry in assay [1] (mdck), in assay [2], in assay [3], in assay [4], in assay [5] and in assay [6] was “Not Active” throughout. The IC50 result in assay [7] is listed as “Not Active”. Also, the Ki result in assay [4], in assay [5] and in assay [6] was “Not Active” throughout.
As for `CC(C(=O)O)c1ccc(-c2ccccc2)c(F)c1` (stereo unspecified) [FLURBIPROFEN], the IC50 result in assay [1] (mdck), in assay [2], in assay [3], in assay [4], in assay [5] and in assay [6] was “Not Active” throughout. In assay [7], the IC50 entry was “Not Active”. The Ki result in assay [4], in assay [5] and in assay [6] was “Not Active” throughout.

Values taken from ChEMBL document CHEMBL1909046, “DrugMatrix in vitro pharmacology data”.
